Where two headings read alike, the source gives them in different places. Starred links: 1 amine or outer side, 2 acyl side, 3 side chain; linkers in the order of their positions; H or OH if unused. Non-standard residues stand in square brackets, D forms with d. Residues, ends and D or L forms follow the SMILES beside them. Groups on a side chain read outwards from the residue. *: point of attachment. C18 diacid = O=C(O)CCCCCCCCCCCCCCCCC(=O)*; γGlu = O=C(O)[C@H](CCC(=O)[*:2])N[*:1]; αMeF = C[C@](N)(Cc1ccccc1)C(=O)O; AEEA = NCCOCCOCC(=O)O; Aib = CC(C)(N)C(=O)O

Assay [1] has as its target human GLP-1 receptor (hGLP-1R) (Homo sapiens, UniProt P43220). The assay is described as follows: cAMP production (HTRF) in CHO cells expressing hGLP-1R. The format is cell-based. Also noted: expressed in transfected cells. The settings on record: for EC50: cAMP in CHO hGLP-1R cells, geometric mean; for % Relative Potency Ratio: % GLP-1R activity relative to GLP-1 / % GlucR activity relative to glucagon. An outline of the steps: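 Potency values represent EC50 from 4-parameter logistic curves of HTRF % Delta F signal. Receptor-expressing CHO cells (hGCGR 2×10^5 cells/mL, hGLP-1R 1×10^5 cells/mL) were exposed for 30 min at room temperature before two-step cAMP detection.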
On the technique in general: Changes in cAMP serve as a functional read-out for many G protein-coupled receptors.

For assay [2], the target named is human glucagon receptor (hGCGR) (Homo sapiens, UniProt P47871). The assay is described as follows: cAMP production (HTRF) in CHO cells expressing hGCGR. Type of assay: cell-based. Also noted: expressed in transfected cells. The following applies: cAMP in CHO hGCGR cells, geometric mean. The protocol:
Cells were re-suspended in assay buffer at a batch-dependent optimized concentration (typically hGLP-1R cells at 1×10^5 cells/mL, hGCGR cells at 2×10^5 cells/mL).
Cells were added to the assay plate using a multidrop dispenser and incubated at room temperature for 30 minutes before measuring the cAMP level using a cAMP dynamic 2 homogeneous time resolved Fluorescence (HTRF) kit (Cisbio Bioassays #62AM4PEJ) following the two-step protocol as per manufacturer's recommendations. In brief, anti-cAMP cryptate (donor fluorophore) and cAMP-d2 (acceptor fluorophore) were made up separately by diluting each 1 in 20 in conjugate and lysis buffer provided in the kit. Anti-CAMP cryptate was added to all wells of the assay plate, followed by cAMP-d2 added to all wells except non-specific binding (NSB) wells (to which conjugate and lysis buffer was added).
Data was transformed to % Delta F as described in the manufacturer's guidelines and analyzed by 4-parameter logistic fit to determine EC50 values.

Sequence of human glucagon receptor (hGCGR) (P47871 26-477): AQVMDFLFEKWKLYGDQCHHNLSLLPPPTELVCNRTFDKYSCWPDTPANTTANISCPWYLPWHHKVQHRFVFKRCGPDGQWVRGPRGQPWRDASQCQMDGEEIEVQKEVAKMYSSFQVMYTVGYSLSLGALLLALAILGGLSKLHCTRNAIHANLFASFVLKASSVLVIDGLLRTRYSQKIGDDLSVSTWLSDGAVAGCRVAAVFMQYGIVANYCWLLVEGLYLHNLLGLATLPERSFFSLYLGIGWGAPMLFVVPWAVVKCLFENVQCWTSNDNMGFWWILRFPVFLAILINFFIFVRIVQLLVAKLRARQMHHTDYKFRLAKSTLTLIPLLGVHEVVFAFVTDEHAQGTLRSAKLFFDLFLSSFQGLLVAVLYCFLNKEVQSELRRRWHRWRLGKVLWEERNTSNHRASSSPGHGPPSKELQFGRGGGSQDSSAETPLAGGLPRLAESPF
Sequence of human GLP-1 receptor (hGLP-1R) (P43220 24-463): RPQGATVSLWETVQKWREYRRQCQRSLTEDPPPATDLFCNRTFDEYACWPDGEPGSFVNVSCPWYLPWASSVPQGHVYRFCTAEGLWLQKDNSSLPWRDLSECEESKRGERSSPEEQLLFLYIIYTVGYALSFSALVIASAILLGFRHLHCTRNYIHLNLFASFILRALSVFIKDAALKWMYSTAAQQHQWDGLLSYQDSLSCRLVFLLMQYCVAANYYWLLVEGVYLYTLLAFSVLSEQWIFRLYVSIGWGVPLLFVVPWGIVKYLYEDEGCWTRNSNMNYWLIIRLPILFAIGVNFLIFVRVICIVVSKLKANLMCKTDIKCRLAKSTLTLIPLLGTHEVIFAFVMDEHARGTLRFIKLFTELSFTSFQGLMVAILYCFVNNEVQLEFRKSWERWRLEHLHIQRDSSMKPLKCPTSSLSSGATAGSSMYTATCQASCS

For orientation: EC50 means the concentration giving half of the maximal effect. On to `CC[C@H](C)[C@H](NC(=O)[C@H](Cc1c[nH]c2ccccc12)NC(=O)[C@H](CCC(N)=O)NC(=O)[C@@H](NC(=O)[C@H](Cc1ccccc1)NC(=O)[C@H](CC(=O)O)NC(=O)[C@H](CCCNC(=N)N)NC(=O)[C@H](C)NC(=O)[C@H](C)NC(=O)[C@H](CCCCNC(=O)COCCOCCNC(=O)COCCOCCNC(=O)CC[C@H](NC(=O)CCCCCCCCCCCCCCCCC(=O)O)C(=O)O)NC(=O)[C@H](CO)NC(=O)[C@H](CC(=O)O)NC(=O)[C@H](CC(C)C)NC(=O)[C@](C)(Cc1ccccc1)NC(=O)[C@H](CCCCN)NC(=O)[C@H](CO)NC(=O)[C@@H](NC(=O)[C@H](CC(=O)O)NC(=O)[C@H](CO)NC(=O)[C@@H](NC(=O)[C@](C)(Cc1ccccc1)NC(=O)[C@H](CO)NC(=O)CNC(=O)[C@H](Cc1c[nH]cn1)NC(=O)C(C)(C)NC(=O)[C@@H](N)Cc1c[nH]cn1)[C@@H](C)O)C(C)C)C(C)C)C(=O)N[C@@H](C)C(=O)N[C@@H](CC(N)=O)C(=O)N[C@H](C(N)=O)[C@@H](C)O` [Peptide 9] (H-H[Aib]HGS[αMeF]TSDVSK[αMeF]LDSK([AEEA-AEEA-γGlu-C18 diacid])AARDFVQWIANT-NH2; N-terminus assumed), for which the EC50 in assay [1] (Table 6, peptides modified at position 17, read-out: hGLP-1R EC50) was 242 pM; in assay [2] (Table 6, peptides modified at position 17, read-out: hGluc-R EC50) it was 279 pM. Also, in assay [1] (Table 6), the “% Relative Potency Ratio” value stood at 2.3.
As for `CC(C)C[C@H](NC(=O)[C@H](CCC(=O)O)NC(=O)[C@H](CC(C)C)NC(=O)[C@](C)(Cc1ccccc1)NC(=O)[C@H](CCCCN)NC(=O)[C@H](CO)NC(=O)[C@@H](NC(=O)[C@H](CC(=O)O)NC(=O)[C@H](CO)NC(=O)[C@@H](NC(=O)[C@H](Cc1ccccc1)NC(=O)[C@@H](NC(=O)CNC(=O)[C@H](CCC(N)=O)NC(=O)C(C)(C)NC(=O)[C@@H](N)Cc1c[nH]cn1)[C@@H](C)O)[C@@H](C)O)C(C)C)C(=O)N[C@@H](CCCCNC(=O)COCCOCCNC(=O)COCCOCCNC(=O)CC[C@H](NC(=O)CCCCCCCCCCCCCCCCC(=O)O)C(=O)O)C(=O)N[C@@H](CCCNC(=N)N)C(=O)N[C@@H](C)C(=O)N[C@@H](CCC(N)=O)C(=O)N[C@@H](CC(=O)O)C(=O)N[C@@H](Cc1ccccc1)C(=O)N[C@H](C(=O)N[C@@H](CCCNC(=N)N)C(=O)N[C@@H](Cc1c[nH]c2ccccc12)C(=O)N[C@@H](CC(C)C)C(=O)N[C@@H](CC(C)C)C(=O)NC(C)(C)C(=O)N[C@H](C(=O)N[C@@H](CCC(=O)O)C(=O)O)[C@@H](C)O)C(C)C` [Peptide 169] (H-H[Aib]QGTFTSDVSK[αMeF]LELK([AEEA-AEEA-γGlu-C18 diacid])RAQDFVRWLL[Aib]TE-OH; N-terminus assumed), the EC50 in assay [1] (hGLP-1R EC50 (pM), Table 6, peptides modified at position 17) stood at 210 pM; in assay [2] (hGluc-R EC50 (pM), Table 6, peptides modified at position 17), 1400 pM.
`CC[C@H](C)[C@H](NC(=O)C(C)(C)NC(=O)[C@H](CCC(N)=O)NC(=O)[C@@H](NC(=O)[C@](C)(Cc1ccccc1)NC(=O)[C@H](CC(=O)O)NC(=O)[C@H](CCCCNC(=O)COCCOCCNC(=O)COCCOCCNC(=O)CC[C@H](NC(=O)CC[C@H](NC(=O)CCCCCCCCCCCCCCCCC(=O)O)C(=O)O)C(=O)O)NC(=O)[C@H](C)NC(=O)[C@H](C)NC(=O)[C@H](CCCNC(=N)N)NC(=O)[C@H](CO)NC(=O)[C@H](CC(=O)O)NC(=O)[C@H](CC(C)C)NC(=O)[C@](C)(Cc1ccccc1)NC(=O)[C@H](CCCCN)NC(=O)[C@H](CO)NC(=O)[C@@H](NC(=O)[C@H](CC(=O)O)NC(=O)[C@H](CO)NC(=O)[C@@H](NC(=O)[C@](C)(Cc1ccccc1)NC(=O)[C@H](CO)NC(=O)CNC(=O)[C@H](Cc1c[nH]cn1)NC(=O)C(C)(C)NC(=O)[C@@H](N)Cc1c[nH]cn1)[C@@H](C)O)C(C)C)C(C)C)C(=O)N[C@@H](C)C(=O)N[C@@H](CC(N)=O)C(=O)N[C@H](C(N)=O)[C@@H](C)O` [Peptide 231] (H-H[Aib]HGS[αMeF]TSDVSK[αMeF]LDSRAAK([AEEA-AEEA-γGlu-γGlu-C18 diacid])D[αMeF]VQ[Aib]IANT-NH2): the EC50 in assay [1] (Table 7, peptides modified at position 20, read-out: hGLP-1R EC50) was found to be 49.9 pM; in assay [2] (Table 7, peptides modified at position 20, read-out: hGluc-R EC50), 58.5 pM. For the same molecule, the “% Relative Potency Ratio” value in assay [1] (Table 7) came out at 2.3.

The values are drawn from patent US20250353891A1 (MEDIMMUNE LIMITED, priority 2022, published 2025).
